The values that follow come from US7696246B2 (Ligand Pharmaceuticals Incorporated, priority 1999, dated 2010).

Structures are written as SMILES. pEC50, pIC50, pKi: −log10 of the molar value.

In assay [1] the target is T1, human AR (Homo sapiens, UniProt P10275).
T1 sequence (P10275 1-920): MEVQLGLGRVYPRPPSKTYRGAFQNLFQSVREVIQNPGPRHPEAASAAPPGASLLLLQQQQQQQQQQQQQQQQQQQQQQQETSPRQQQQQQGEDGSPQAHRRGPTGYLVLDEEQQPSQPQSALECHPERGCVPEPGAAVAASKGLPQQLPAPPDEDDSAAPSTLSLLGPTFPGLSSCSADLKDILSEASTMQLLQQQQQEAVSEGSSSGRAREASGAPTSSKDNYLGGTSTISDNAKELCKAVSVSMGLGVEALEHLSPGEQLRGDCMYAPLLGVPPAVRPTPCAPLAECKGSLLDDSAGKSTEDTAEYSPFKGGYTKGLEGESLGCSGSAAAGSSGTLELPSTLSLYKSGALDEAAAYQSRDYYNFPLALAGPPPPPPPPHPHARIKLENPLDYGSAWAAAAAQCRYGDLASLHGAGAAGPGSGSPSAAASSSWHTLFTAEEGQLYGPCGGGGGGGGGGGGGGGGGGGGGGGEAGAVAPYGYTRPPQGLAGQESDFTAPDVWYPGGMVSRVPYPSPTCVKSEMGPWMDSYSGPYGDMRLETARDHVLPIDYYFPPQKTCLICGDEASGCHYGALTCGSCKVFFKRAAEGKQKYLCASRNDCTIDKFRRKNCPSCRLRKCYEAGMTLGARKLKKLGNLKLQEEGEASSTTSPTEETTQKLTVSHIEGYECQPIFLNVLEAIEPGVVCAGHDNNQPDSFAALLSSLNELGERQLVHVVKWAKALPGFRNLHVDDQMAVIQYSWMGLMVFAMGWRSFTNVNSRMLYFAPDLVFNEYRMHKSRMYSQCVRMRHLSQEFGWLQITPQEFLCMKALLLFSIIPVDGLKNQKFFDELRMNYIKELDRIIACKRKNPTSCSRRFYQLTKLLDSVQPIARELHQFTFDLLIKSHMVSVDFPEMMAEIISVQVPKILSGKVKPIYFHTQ
The assay can be described thus: AR whole cell competitive binding assay (COS-1 cells, 3H-DHT). To be noted: 1 nM 3H-DHT, Cheng-Prusoff.

In assay [2] the target is T1, human AR. The assay can be described thus: Co-transfection assay, AR agonist activity (CV-1 cells, MTV-LUC reporter). Format: cell-based. The following applies: CV-1 cells; for pEC50: agonist potency EC50; for AR Agonist CV-1 Cells Efficacy (%): percent maximal response relative to reference agonist DHT.
Assay [3] concerns the target T1, human AR. The assay can be described thus: Co-transfection assay, AR antagonist activity (CV-1 cells, in presence of DHT). Format: cell-based. To be noted: for AR Antagonist CV-1 Cells Efficacy (%): percent maximal inhibition, DHT at its EC50; for pIC50: read-out: AR Antagonist CV-1 Cells Potency.

Broadly, the pKi is the negative decadic logarithm of the Ki, by convention in mol/L. A higher pKi goes with a low Ki. Usually pEC50 stands for −log10 of the EC50, conventionally taken in molar units. In turn, `CC1(C)CC(=O)Nc2ccc(N(CC(F)(F)F)CC(F)(F)F)cc21` [Compound 501, 3,4-Dihydro-4,4-dimethyl-6-(bis-N,N-2,2,2-trifluoroethyl)amino-2(1H)-quino-linone] had a pKi at human AR [1] of 7.80. Further, at human AR [2], the pEC50 is 8.24 and the “AR Agonist CV-1 Cells Efficacy (%)” value was determined as 110%. Moreover, on human AR [3], the “AR Antagonist CV-1 Cells Efficacy (%)” value is “na (na = not active (i.e. efficacy of <20 and potency of >10,000))”; the pIC50 was below 5.00.
Take `Cn1c(=O)cc(C(F)(F)F)c2ccc(NCC(F)(F)F)cc21` [Compound 532, 1-Methyl-7-(2,2,2-trifluoromethyl)amino-4-trifluoromethyl-2(1H)-quinolinone]: the pKi on human AR [1] was 6.80. At human AR [2], the negative-log EC50 (pEC50) is below 5.00. Besides, on human AR [3], the “AR Antagonist CV-1 Cells Efficacy (%)” value is listed as 85% and the pIC50 was 7.14.
Regarding `CC(C)Nc1ccc2c(C(F)(F)F)c(F)c(=O)[nH]c2c1` [Compound 535, 3-Fluoro-7-isopropylamino-4-trifluoromethyl-2(1H)-quinolinone], on human AR [1], the pKi was below 6.00. In addition, at human AR [2], the pEC50 is below 5.00. Besides, at human AR [3], the “AR Antagonist CV-1 Cells Efficacy (%)” value is reported as 76% and the pIC50 was 7.22.
The corresponding values for `O=c1[nH]c2cc(NC3CCCC3)ccc2c(C(F)(F)F)c1F` [Compound 536, 3-Fluoro-7-cyclopentylamino-4-trifluoromethyl-2(1H)-quinolinone] are 6.73, below 5.00, 76% and 7.55.
The corresponding values for `Nc1cc2[nH]c(=O)cc(C(F)(F)F)c2cc1OCC(F)(F)F` [Compound 571, 7-Amino-6-(2,2,2-trifluoroethoxy)-4-trifluoromethyl-2(1H)-quinolinone] are 7.15, below 5.00, 69% and 7.85.
The corresponding values for `Nc1cc2[nH]c(=O)cc(C(F)(F)F)c2cc1C1CCCCC1` [Compound 582, 7-Amino-6-cyclohexyl-4-trifluoromethyl-2(1H)-quinolinone] are 7.37, below 5.00, 92% and 7.59.
At human AR [1], `CCCOc1c(NCC(F)(F)F)ccc2[nH]c(=O)cc(C(F)(F)F)c12` [Compound 602, 6-(N-2,2,2-Trifluoroethyl)amino-5-propyloxy-4-trifluoromethyl-2(1H)-quinolinone] gave a pKi of 7.35. At human AR [2], this compound had a pEC50 below 5.00. Further, at human AR [3], the “AR Antagonist CV-1 Cells Efficacy (%)” value turned out to be 85% and the pIC50 is 7.57.
The compound `CC(C)c1ccc2[nH]c(=O)cc(C(F)(F)F)c2c1` [Compound 615, 6-Isopropyl-4-trifluoromethyl-2(1H)-quinolinone] showed a negative logarithm of the Ki (pKi) at human AR [1] of 7.25. In addition, at human AR [2], the pEC50 was 5.55 and the “AR Agonist CV-1 Cells Efficacy (%)” value came out at 23%. Also, at human AR [3], the “AR Antagonist CV-1 Cells Efficacy (%)” value is recorded as 82% and the pIC50 is 7.32.
Regarding `O=c1cc(C(F)(F)F)c2cc(C3CCCCC3)ccc2[nH]1` [Compound 616, 6-Cyclohexyl-4-trifluoromethyl-2(1H)-quinolinone], the pKi at human AR [1] is 7.82. At human AR [2], this compound showed a pEC50 below 5.00. At human AR [3], the “AR Antagonist CV-1 Cells Efficacy (%)” value is given as 92% and the pIC50 is 7.77.
Regarding `O=c1cc(C(F)(F)F)c2cc(C3=CCCCC3)ccc2[nH]1` [Compound 630, 6-Cyclohexenyl-4-trifluoromethyl-2(1H)-quinolinone], the negative-log Ki (pKi) at human AR [1] was 6.96. Moreover, on human AR [2], the negative logarithm of the EC50 (pEC50) is 6.66 and the “AR Agonist CV-1 Cells Efficacy (%)” value is listed as 30%. In addition, at human AR [3], the “AR Antagonist CV-1 Cells Efficacy (%)” value turned out to be 67% and the pIC50 is 7.89.
`O=c1cc(C(F)(F)F)c2cc(C3=CCCC3)ccc2[nH]1` [Compound 632, 6-Cyclopentenyl-4-trifluoromethyl-2(1H)-quinolinone] had a negative logarithm of the Ki (pKi) at human AR [1] of 6.95. The compound further gave a pEC50 at human AR [2] below 5.00. At human AR [3], the “AR Antagonist CV-1 Cells Efficacy (%)” value is 75% and the pIC50 is 7.44.
For the compound `O=c1cc(C(F)(F)F)c2cc(C3=CCCCCC3)ccc2[nH]1` [Compound 633, 6-Cycloheptenyl-4-trifluoromethyl-2(1H)-quinolinone], the pKi at human AR [1] was 7.01. Moreover, at human AR [2], the pEC50 was 7.42 and the “AR Agonist CV-1 Cells Efficacy (%)” value amounted to 33%. At human AR [3], the “AR Antagonist CV-1 Cells Efficacy (%)” value is listed as 51% and the pIC50 is 8.12.
On human AR [1], `CCC(CC)c1ccc2[nH]c(=O)cc(C(F)(F)F)c2c1` [Compound 647, 6-(1-Ethylpropyl)-4-trifluoromethyl-2(1H)-quinolinone] showed a pKi of 7.09. Moreover, on human AR [2], the pEC50 was 6.63 and the “AR Agonist CV-1 Cells Efficacy (%)” value came to 42%. Besides, on human AR [3], the “AR Antagonist CV-1 Cells Efficacy (%)” value stood at 64% and the pIC50 was 7.51.
The compound `O=C1C=C(c2ccc3[nH]c(=O)cc(C(F)(F)F)c3c2)CCC1` [Compound 655, 6-(3-Oxo-1-)cyclohexenyl-4-trifluoromethyl-2(1H)-quinolinone] showed a negative-log Ki (pKi) on human AR [1] below 6.00. Further, the pEC50 at human AR [2] is below 5.00. In addition, on human AR [3], the “AR Antagonist CV-1 Cells Efficacy (%)” value is on record as 70% and the pIC50 is 7.15.
For `O=c1cc(C(F)(F)F)c2cc(C(O)(c3ccccc3)c3ccccc3)ccc2[nH]1` [Compound 659, 6-(1-Hydroxy-1,1-diphenyl)methyl-4-trifluoromethyl-2(1H)-quinolinone] the same measures were 7.40, below 5.00, 70% and 7.36.
For `CC(C)c1ccc2c(c1)CN(C)C(=O)N2` [Compound 721, 3,4-Dihydro-6-isopropyl-3-methyl-2(1H)-quinazolinone] the same measures were below 6.00, below 5.00, 85% and 7.49.
The corresponding values for `Cc1cccc(-c2ccc3[nH]c(=O)cc(C(F)(F)F)c3c2)c1` [Compound 738, 4-Trifluoromethyl-6-(3-methylphenyl)-2(1H)-quinolinone] are below 6.00, below 5.00, 91% and 7.57.
As for `O=c1cc(C(F)(F)F)c2cc(-c3cccc(F)c3)ccc2[nH]1` [Compound 741, 4-Trifluoromethyl-6-(3-fluorophenyl)-2(1H)-quinolinone], the pKi on human AR [1] is 6.49. The compound also showed a pEC50 at human AR [2] below 5.00. At human AR [3], the “AR Antagonist CV-1 Cells Efficacy (%)” value came out at 92% and the pIC50 is 7.57.
As to `O=c1cc(C(F)(F)F)c2cc(-c3ccc(Cl)cc3Cl)ccc2[nH]1` [Compound 753, 4-Trifluoromethyl-6-(2,4-dichlorophenyl)-2(1H)-quinolinone], the pKi on human AR [1] is 7.13. The pEC50 on human AR [2] is below 5.00. In addition, at human AR [3], the “AR Antagonist CV-1 Cells Efficacy (%)” value is listed as 76% and the pIC50 was 7.29.
The corresponding values for `COc1cccc(-c2ccc3[nH]c(=O)cc(C)c3c2)c1` [Compound 758, 4-Methyl-6-(3-methoxyphenyl)-2(1H)-quinolinone] are 8.44, below 5.00, 94% and 7.06.
The corresponding values for `O=c1cc(C(F)(F)F)c2cc(-c3ccccc3)ccc2[nH]1` [Compound 764, 4-Trifluoromethyl-6-phenyl-2(1H)-quinolinone] are 7.80, below 5.00, 87% and 7.52.
